This is an account of results in patent US12122786B2, “Inhibitors of cyclic mono- and di-nucleotide phosphodiesterases and the uses thereof” (priority 2020, dated 2024).

SMILES strings stand for the structures. pIC50, pKi: −log10 of the molar value.

As a reminder, the pIC50 is −log10 of the IC50, conventionally taken in molar units.

In data set [1] the target is T1, MTB CdnP (Mycobacterium tuberculosis, UniProt P71615). The data set is described as follows: Differential radial capillary action of ligand assay (DRaCALA). It counts as binding. As to conditions: 20 μM MTB CdnP, 200 pM 32P c-di-AMP; C82 even at 300 μM. On the procedure: (§1) FIG. 7A: unlabeled c-di-AMP inhibits ^32P-c-di-AMP sequestering by MTB CdnP in a concentration dependent manner. FIG. 7B: C82 effects on ^32P-c-di-AMP sequestering by MTB CdnP. […] CDA=c-di-AMP. ***=p-value<0.001. Statistical analysis conducted using the student's t-test.
(§2) Next, we sought to determine C82 mode of inhibition. Firstly, we confirmed that C82 does indeed bind to MTB CdnP, using intrinsic fluorescence assay^20. […] We then determined whether C82 could displace bound c-di-AMP from MTB CdnP. […] We also used a secondary fluorescent polarization displacement assay to confirm this finding. Briefly, fluorescent labeled c-di-GMP was incubated with MTB CdnP and treated with different concentrations of C82, or c-di-AMP in the presence of calcium to inhibit the cleavage of the bound CDN′″. […] We therefore concluded that C82 inhibits MTB CdnP by binding to a non-cyclic dinucleotide binding site. Kinetics studies reveal that C82 inhibits MTB CdnP with an apparent inhibition constant of approximately 8 μM (FIG. 8). Future structural work, beyond the scope of this work should help clarify the binding site of C82.
5 μl of the reaction mixture was pipetted onto dry untreated nitrocellulose membrane (GE Healthcare) and allowed to dry at room temperature. The nitrocellulose membrane was exposed to the GE Storage Phosphor screen for 8 h and then visualized with Typhoon™ FLA 9500 biomolecular imager.

Another data set concerns PDE3. As to conditions: read-out: IC50 (PDE3 inhibitor); cited from earlier work.
For a further data set, the target named is T2, ENPP1 (Homo sapiens, UniProt P22413).
T2 sequence (P22413 1-925): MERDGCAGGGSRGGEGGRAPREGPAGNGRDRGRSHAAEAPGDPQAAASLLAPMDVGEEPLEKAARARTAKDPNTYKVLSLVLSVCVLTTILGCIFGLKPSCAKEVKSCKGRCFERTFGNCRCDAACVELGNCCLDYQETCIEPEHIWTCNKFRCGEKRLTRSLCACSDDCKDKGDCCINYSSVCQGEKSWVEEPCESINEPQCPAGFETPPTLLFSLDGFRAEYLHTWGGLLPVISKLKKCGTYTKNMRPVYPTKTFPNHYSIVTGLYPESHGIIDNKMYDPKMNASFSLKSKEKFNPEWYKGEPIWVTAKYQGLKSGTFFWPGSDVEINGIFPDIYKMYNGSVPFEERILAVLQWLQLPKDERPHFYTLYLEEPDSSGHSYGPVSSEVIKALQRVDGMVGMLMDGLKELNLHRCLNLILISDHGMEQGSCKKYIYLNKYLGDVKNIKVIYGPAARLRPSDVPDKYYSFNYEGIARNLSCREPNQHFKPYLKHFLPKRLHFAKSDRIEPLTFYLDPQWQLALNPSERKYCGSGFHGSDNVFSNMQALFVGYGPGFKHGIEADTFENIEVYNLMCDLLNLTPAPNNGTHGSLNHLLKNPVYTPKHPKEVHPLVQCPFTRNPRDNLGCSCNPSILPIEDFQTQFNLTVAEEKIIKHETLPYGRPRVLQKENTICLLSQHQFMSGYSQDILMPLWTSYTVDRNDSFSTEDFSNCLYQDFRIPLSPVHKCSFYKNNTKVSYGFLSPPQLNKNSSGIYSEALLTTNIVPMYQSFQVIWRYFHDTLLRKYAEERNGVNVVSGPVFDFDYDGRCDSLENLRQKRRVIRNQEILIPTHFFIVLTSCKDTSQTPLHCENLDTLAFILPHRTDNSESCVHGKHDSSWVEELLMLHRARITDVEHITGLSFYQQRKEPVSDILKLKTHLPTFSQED
The data set is described as follows: Selectivity, HPLC analysis of ENPP1 reaction. As to conditions: 25 μM cGAMP, 4.58 nM ENPP1, 37° C., 60 min.

In data set [2] the target is T1, MTB CdnP. Kind of data set: Kinetics study (Dixon plot) by coralyne assay. As to conditions: 50 nM MTB CdnP, 30° C., read-out: apparent inhibition constant. It counts as biochemical. On the procedure:
FIG. 8: C82 Dixon plot. Initial velocity was determined using slope of c-di-AMP hydrolysis kinetics.
as §2

In the next data set the test system is GBS-CdnP. The data set is described as follows: Selectivity, HPLC analysis of GBS CdnP reaction. As to conditions: 50 μM c-di-AMP, 100 nM GBS CdnP, room temperature, 15 min.
Data set [3] addresses T1, MTB CdnP. It counts as biochemical. As to conditions: 20 to 150 μM inhibitor, 0.5 μM MTB CdnP, 1 h at 37° C.
Data set [4] has as its target T1, MTB CdnP. The data set is described as follows: HPLC analysis of c-di-AMP cleavage by MTB CdnP. It counts as biochemical. As to conditions: 20 μM compound, 100 nM MTB CdnP, 70 μM c-di-AMP, 37° C.
Data set [5] addresses T1, MTB CdnP. The data set is described as follows: Intrinsic fluorescence binding assay. As to conditions: 2 μM MTB CdnP, varying concentrations, 1× PBS. On the procedure: as §2
Solutions containing 2 μM MTB CndP, and varying concentrations of C82 in 1× PBS were incubated for 30 min at room temperature. Fluorescence spectra were obtained by measuring fluorescence intensities in the 310 nm to 400 nm range following an excitation at 290 nm wavelength.

The target in the next data set is poxin (Vaccinia virus, UniProt Q01225). Kind of data set: Selectivity, HPLC analysis of poxin reaction. As to conditions: 20 μM 2′3 cGAMP, 5 nM poxin, room temperature, 20 min.
In another data set the target is RocR (Pseudomonas aeruginosa, UniProt Q9HX69). Kind of data set: Selectivity, HPLC analysis of RocR reaction. As to conditions: 25 μM c-di-GMP, 10 nM RocR, 37° C., 60 min.
Data set [6] deals with mammalian cells (MDA-MB-231, and MRC-5). As to conditions: up to 100 μM, 24 h.
Data set [7] concerns the target T1, MTB CdnP. The data set is described as follows: Fluorescence polarization competition assay. It counts as binding. As to conditions: 150 μM MTB CdnP, 50 nM F-c-di-GMP, calcium. On the procedure:
as §1, §2
Fluorescence polarization was determined using Biotek Cytation 5 multi-mode reader (excitation 485 nm/20 and emission 528 nm/20). Anisotropy was calculated using the GEN 5™ microplate reader and imaging software.

The target of data set [8] is T1, MTB CdnP. The data set is described as follows: IC50 determination of MTB CdnP inhibition, coralyne assay. It counts as biochemical. As to conditions: 50 nM MTB CdnP and 80 μM c-di-AMP, read-out: IC50 of MTB CdnP enzymatic activity inhibition.
The target of another data set is Yybt (Bacillus subtilis, UniProt P37484). Kind of data set: Selectivity, HPLC analysis of Yybt reaction. As to conditions: 70 μM c-di-AMP, 1 μM Yybt, 37° C., 60 min.
The next data set deals with T3, PDE5A (Homo sapiens, UniProt O76074).
T3 construct: purchased Reaction Biology
The data set is described as follows: Cyclic mononucleotide phosphodiesterase inhibition (PDE5A), Transcreener fluorescence polarization assay. It counts as biochemical. As to conditions: 10 μM of compound, 1 μM cGMP, 1 h. On the procedure:
Cyclic mononucleotide phosphodiesterase inhibition (PDE5A): 10 μM of compound was added to PDE5A in Buffer (10 mM Tris, pH 7.5, 5 mM MgCl2, 0.01% Brij 35, 1 mM DTT, and 1% DMSO). 1 μM cGMP was added and the reaction was incubated for 1 h. The assay used detects the reaction product, GMP, by Transcreener Fluorescence polarization assay (Reaction Biology).
A general note: In fluorescence polarisation assays a small probe gives low polarisation when free and higher when bound to something large.

The subject of the next data set is PDE10. As to conditions: read-out: IC50 (PDE10 inhibitor); cited from earlier work.
Another data set deals with PDE4. As to conditions: read-out: IC50 (PDE4 inhibitor); cited from earlier work.

With `Nc1ncnc2c1ncn2[C@@H]1O[C@@H]2COP(=O)(O)O[C@H]3[C@@H](O)[C@H](n4cnc5c(N)ncnc54)O[C@@H]3COP(=O)(O)O[C@H]2[C@H]1O` [c-di-AMP, reference compound], the “displacement of radiolabeled c-di-AMP from MTB CdnP (DRaCALA)” value at MTB CdnP [1] is on record as “could displace radiolabeled c-di-AMP”.
Turning to `CSc1ccc(C(=O)c2[nH]c(=O)[nH]c2C)cc1` [enoximone], the pIC50 with PDE3 was 5.00.
`CCc1cc2c(=O)n(CC(=O)Nc3ccccc3OC)cnc2s1` [Compound C82]: the “inhibition of ENPP1” value against ENPP1 was “did not inhibit”. In addition, the pKi on MTB CdnP [2] was approximately 5.10. Also, the “inhibition of GBS-CdnP” value in the data set with GBS-CdnP is on record as “did not inhibit”. The “inhibition of c-di-AMP hydrolysis by MTB CdnP (TLC), varying inhibitor concentrations” value on MTB CdnP [3] was “most potent inhibition”. Also, the “inhibition of c-di-AMP cleavage by MTB CdnP (HPLC), 3 h incubation” value against MTB CdnP [4] (3 h) was “most potent inhibitory effects”. Besides, at MTB CdnP [4] (12 h), the “inhibition of c-di-AMP cleavage by MTB CdnP (HPLC), overnight (12 h) incubation” value is on record as “retained any inhibitory effect”. The “binding to MTB CdnP (intrinsic fluorescence decay)” value on MTB CdnP [5] is on record as “does bind to MTB CdnP”. On poxin, the inhibition of poxin entry is on record as “did not inhibit”. For the same compound, at MTB CdnP [1], the “displacement of radiolabeled c-di-AMP from MTB CdnP (DRaCALA)” value was “did not displace radiolabeled c-di-AMP”. On RocR, the “inhibition of RocR” value is given as “did not inhibit”. Further, the “cytotoxicity against mammalian cells (cell viability)” value in data set [6] is listed as “did not significantly inhibit cell viability”. The “displacement of fluorescent labeled c-di-GMP from MTB CdnP (fluorescence polarization)” value on MTB CdnP [7] is “did not displace the fluorescent labeled c-di-GMP”. Moreover, the negative-log IC50 (pIC50) on MTB CdnP [8] was 4.76. The “inhibition of Yybt” value against Yybt was “did not inhibit”. Moreover, the “% inhibition (PDE5A)” value on PDE5A came to 32.00%.
As for `COc1ccc(Cc2nccc3cc(OC)c(OC)cc23)cc1OC` [papaverine], the negative-log IC50 (pIC50) in the data set with PDE10 was 7.03.
On to `CCOc1cc([C@@H](CS(C)(=O)=O)N2C(=O)c3cccc(NC(C)=O)c3C2=O)ccc1OC` [apremilast], for which the pIC50 in the data set with PDE4 was 7.13.
